Measured values: patent US10898547B2, “Method of treatment of breast or colon cancer by administering muscle stimulated myokines” (Unicorn Therapeutics, LLC, priority 2016, dated 2021)

Key:
Assay type in all cases: cell-based
HT-29 = assay: 5′FU dosage determination in HT-29 cells, 96-well plate; conditions: HT-29, after 48 hrs
HepG2 [1] = assay: WST cellular proliferation assay in HepG2 HCC cells; conditions: 24-48 hrs, sorafenib 1, 2 and 5 micromolar
HepG2 [2] = assay: Western blot of metabolic markers (pAMPK, pAKT, pACC) in HepG2 cells; set-up: dose or concentration left out as unconfirmed; conditions: HepG2, sorafenib (FIG. 6A)
Huh7 = assay: WST cellular proliferation assay in Huh7 HCC cells; conditions: 24-48 hrs, sorafenib 1, 2 and 5 micromolar

Row | Compound | concentration showing the best effect without suggestion of cytotoxicity (HT-29) | cellular proliferation (HepG2 [1]) | pAMPK expression (HepG2 [2]) | cellular proliferation (Huh7)
1 | O=c1[nH]cc(F)c(=O)[nH]1 [5′FU, 5-fluorouracil] | 25 µM |  |  | 
2 | CNC(=O)c1cc(Oc2ccc(NC(=O)Nc3ccc(Cl)c(C(F)(F)F)c3)cc2)ccn1 [sorafenib] |  | decrease | increase | decrease
